Experimental data as given in paper PMC3663118, “Structure of the protein core of translation initiation factor 2 in apo, GTP-bound and GDP-bound forms” (Acta Crystallographica Section D: Biological Crystallography, 2013).

How the values were obtained:
[1] = molecular target: T1, IF2 (protein core, residues 1-363) (Thermus thermophilus, UniProt P48515); assay: X-ray crystal structure, […] A, crystal soaking; type: binding; settings: 5 mM GDP added to the crystallization drop; Mg2+ bound; pH 7.5 protein buffer; G-domain P-loop site
T1 construct: gene infB; proteolysed during crystallization to residues 1-363 (40 kDa; N domain, G domain, domain II, start of domain III); one molecule per asymmetric unit
T1 sequence (P48515 1-363): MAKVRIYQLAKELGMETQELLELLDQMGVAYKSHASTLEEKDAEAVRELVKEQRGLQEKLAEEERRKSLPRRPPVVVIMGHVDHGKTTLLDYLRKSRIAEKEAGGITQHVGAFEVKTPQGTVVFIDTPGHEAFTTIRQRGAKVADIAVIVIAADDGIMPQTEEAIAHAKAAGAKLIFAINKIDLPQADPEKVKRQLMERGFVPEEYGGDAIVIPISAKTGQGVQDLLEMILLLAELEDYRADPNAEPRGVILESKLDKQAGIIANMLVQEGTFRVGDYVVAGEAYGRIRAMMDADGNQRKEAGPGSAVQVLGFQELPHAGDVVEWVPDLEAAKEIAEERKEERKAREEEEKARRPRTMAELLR

[2] = molecular target: T1, IF2 (protein core, residues 1-363); assay: X-ray crystal structure, […] A, crystal soaking; type: binding; settings: 30 s soak with GTP-containing cryoprotectant; Mg2+ bound; pH 7.5 protein buffer; G-domain P-loop site; GTP occupancy 0.68

Row | Structure (SMILES) | X-ray crystal structure, 2.3 A, crystal soaking [1] | X-ray crystal structure, 2.8 A, crystal soaking [2]
1 | Nc1nc2c(ncn2[C@@H]2O[C@H](COP(=O)(O)OP(=O)(O)O)[C@@H](O)[C@H]2O)c(=O)[nH]1 [GDP] | 4b3x, 4b48, 4b47 for the apo, GTP and GDP complexes, respectively | –
2 | Nc1nc2c(ncn2[C@@H]2O[C@H](COP(=O)(O)OP(=O)(O)OP(=O)(O)O)[C@@H](O)[C@H]2O)c(=O)[nH]1 [GTP] | – | 4b3x, 4b48, 4b47 for the apo, GTP and GDP complexes, respectively
